Assay results published in patent US9296762B2, “Complexing agents and corresponding lanthanide complexes” (CISBIO BIOASSAYS, priority 2011, dated 2016).

How the values were obtained:
[1] = UV spectra of the chromophores, maximum absorption wavelength; format: physicochemical; conditions: UV spectrum of chromophore 78, carboxylate function protected in ester form
Description: Several compounds according to the invention were prepared and their photophysical properties, in particular the wavelengths corresponding to their maximum absorption peaks (λmax), were determined. The structures of these compounds and the results obtained are described in table 2.
The chromophores (similar to compound 78, carboxylate function protected in ester form) were synthesized according to the protocol described in scheme 13, using one of the two approaches “A” or “B” as described in this scheme (including that for the chromophores comprising naphthyl, thiolanyl, imidazolyl and anthracenyl rings or heterocycles). For each chromophore, the UV spectra were recorded and the maximum absorption wavelengths (λmax) were determined and reported in table 2.

[2] = Photophysical properties of symmetrical europium TACN complexes 81; format: physicochemical; conditions: symmetrical europium TACN complex 81 made of three identical chromophores
Description: For certain chromophores, europium complexes according to the invention in which the three chromophores are identical (symmetrical complexes) were prepared using the protocol described in scheme 14, with a TACN macrocycle (the synthetic yields for the intermediate compounds 79, 80 and 81 of scheme 14 were reported in table 2). The photophysical properties of these europium complexes were determined and also reported in this table.

Row | Chromophore 78 λmax (nm) [1] | Complex 81 Quantic yield (%) [2] | Complex 81 λmax (nm) [2] | SMILES
1 | 322 nm |  |  | COC(=O)c1cc(C#Cc2ccc(NC(C)=O)cc2C)cc(CO)n1
2 | 320 nm | 52% | 333 nm | COC(=O)c1cc(C#Cc2ccc(OC)cc2)cc(CO)n1
3 | 324 nm |  |  | COC(=O)c1cc(C#Cc2ccc(O)cc2)cc(CO)n1
4 | 319 nm |  |  | COC(=O)c1cc(C#Cc2ccc(OC)cc2OC)cc(CO)n1
5 | 323 nm | 46% | 336 nm | COC(=O)c1cc(C#Cc2ccccc2OC)cc(CO)n1
6 | 319 nm | 11% | 336 nm | COC(=O)c1cc(C#Cc2cc(OC)c(C)c(OC)c2)cc(CO)n1
7 | 315 nm |  |  | COC(=O)c1cc(C#Cc2ccc(Oc3ccccc3)cc2)cc(CO)n1
8 | 329 nm |  |  | COC(=O)c1cc(C#Cc2cccc3ccccc23)cc(CO)n1
9 | 335 nm |  |  | COC(=O)c1cc(C#Cc2ccc3cc(OC)ccc3c2)cc(CO)n1
10 | 326 nm | 52% | 323 nm | COC(=O)c1cc(C#Cc2ccsc2)cc(CO)n1
11 | 315 nm | 54% | 333 nm | COC(=O)c1cc(C#Cc2cncn2C)cc(CO)n1
12 | 318 nm |  |  | COC(=O)c1cc(C#Cc2ccc(-c3ccccc3)cc2)cc(CO)n1
13 | 326 nm |  |  | COC(=O)c1cc(C#Cc2ccc(NC(=O)OC(C)(C)C)cc2)cc(CO)n1
14 | 324 nm |  |  | COC(=O)c1cc(C#Cc2ccc(NC(=O)c3cc(OC)c(OC)c(OC)c3)cc2)cc(CO)n1
15 | 323 nm |  |  | COC(=O)c1cc(C#Cc2ccc(NC(=O)c3ccccc3)cc2)cc(CO)n1
16 | 332 nm |  |  | COC(=O)c1cc(C#Cc2ccc(SC)cc2)cc(CO)n1
17 | 326 nm | 76% | 343 nm | COC(=O)c1cc(C#Cc2ccc(OC)cc2C)cc(CO)n1
18 | 326 nm |  |  | COC(=O)c1cc(C#Cc2c3ccccc3cc3ccccc23)cc(CO)n1
19 | 318 nm |  |  | COC(=O)c1cc(C#Cc2ccc(OCC(=O)OC(C)(C)C)cc2)cc(CO)n1
20 | 291 nm |  |  | COC(=O)c1cc(C#Cc2ccccc2)cc(CO)n1 [reference compound]
